Results: US8546451B2 (priority 2005, dated 2013)
“And” between values parts separate entries of the source, which are not always exact repeats. Equal values may be shown once.

What was measured:
PPAR-γ = PPAR-γ (Homo sapiens (Human), UniProt P37231); experiment: Cross-reactivity transcriptional activation assay, PPAR-γ; type: cell-based; settings: agonist and antagonist modes
Description: (§1) Compound IV was screened for cross-reactivity against rat isoforms of glucocorticoid receptor (GR), mineralocorticoids receptor (MR), progesterone receptor (PR), androgen receptor (AR) and human isoforms of farnesoid X receptor (FXR), liver X receptor (LXR), peroxisome proliferator-activated receptors (PPAR-α and PPAR-γ), and retinoid X receptor (RXR-α) in both agonist and antagonist modes in transcriptional activation assays.

androgen receptor (AR) [1] = molecular target: T1, androgen receptor (AR) (Rattus norvegicus (Rat), UniProt P15207); experiment: Cross-reactivity transcriptional activation assay, AR; type: cell-based; settings: agonist and antagonist modes
Description: as §1

CYP2C9 = CYP2C9 (Homo sapiens (Human), UniProt P11712); experiment: CYP450 inhibition in vitro, CYP2C9; type: in vitro ADME
[2] = molecular target: T2, glucocorticoid receptor (GR) (Rattus norvegicus (Rat), UniProt P06536); experiment: DES versus Compound IV, GR crossreaction (FIG. 12A); type: cell-based
rats [3] = experiment: Single and repeated oral administration toxicity in rats; type: in vivo
Description: Compound IV was well-tolerated by rats and dogs after single and repeated oral administration (up to 28 days).

[4] = molecular target: progesterone receptor (PR) (Rattus norvegicus (Rat), UniProt Q63449); experiment: Cross-reactivity transcriptional activation assay, PR; type: cell-based; settings: agonist and antagonist modes
Description: as §1

[5] = Oral pharmacokinetics in dogs; type: in vivo
Description: (§2) Formulations using polyethylene glycol 300 (PEG300) generally produced higher exposures than microemulsions prepared in Tween 80 diluted in deionized water. […] Importantly, in dogs the exposure in the male 30 mg/kg PEG300 oral dose group exceeded the exposure necessary to produce the maximal effect on prostate reduction in the rat model of LH suppression.

androgen receptor (AR) [6] = molecular target: T1, androgen receptor (AR); experiment: DES versus Compound IV, AR crossreaction (FIG. 12B); type: cell-based
[7] = molecular target: T2, glucocorticoid receptor (GR); experiment: Cross-reactivity transcriptional activation assay, GR; type: cell-based; settings: agonist and antagonist modes
Description: as §1

[8] = Preliminary oral pharmacokinetics in monkeys; type: in vivo
Description: as §2

Human 17β-HSD5 = Human 17β-HSD5 (Homo sapiens (Human), UniProt P42330); experiment: 17β-HSD5 enzyme activity assay; type: biochemical; settings: 14C androstenedione to testosterone, TLC (FIG. 3)
CYP1A2 = CYP1A2 (Homo sapiens (Human), UniProt P05177); experiment: CYP450 inhibition in vitro, CYP1A2; type: in vitro ADME; settings: at concentrations <30 μM
rats [9] = experiment: Gastrointestinal effects in rats; type: in vivo; settings: oral
[10] = molecular target: farnesoid X receptor (FXR) (Homo sapiens (Human), UniProt Q96RI1); experiment: Cross-reactivity transcriptional activation assay, FXR; type: cell-based; settings: agonist and antagonist modes
Description: as §1

CYP2B6 = experiment: CYP450 induction in vitro, CYP2B6; type: in vitro ADME
human platelets = experiment: In vitro human platelet aggregation assay (thrombin-induced); settings: platelet rich plasma preincubated 30 seconds; thrombin 0.3 units
[11] = molecular target: ER-β ligand binding domain (LBD) (Homo sapiens (Human), UniProt Q92731); experiment: ER-β competitive radioligand binding assay with [3H]E2; settings: read-out: ER-β Ki
Description: Following incubation, plates were harvested with GF/B filters on the Unifilter-96 Harvester (PerkinElmer) and washed three times with ice-cold buffer B (50 mM Tris, pH 7.2). The filter plates were dried at room temperature, then 35 μl Microscint-O cocktail was added to each well and the filter plates were sealed with TopSeal-A. Radioactivity was counted in a TopCount® NXT Microplate Scintillation Counter using the settings for ^3H in Microscint cocktail (PerkinElmer).
E2 (determined by incubating with 10^−6 M unlabeled E2) and expressing it as a percentage of the specific binding in the absence of test compound.

[12] = system: LH, FSH, testosterone and androgen-dependent organ weights; experiment: Suppression of LH and testosterone hormone levels in intact and ORX rats; type: in vivo, Sprague-Dawley rats; settings: for Testosterone levels: LLOQ 0.08 ng/mL
telemetered dogs = experiment: Hemodynamic and cardiac function in telemetered dogs; type: in vivo; settings: any dose (up to 300 mg/kg)
[13] = Intact, 0.3 mg/kg per day s.c., 14 days
[14] = Intact, 1 mg/kg per day s.c., 14 days
[15] = Intact, 3 mg/kg per day s.c., 14 days
[16] = Intact, 10 mg/kg per day s.c., 14 days
[17] = Intact, 30 mg/kg per day s.c., 14 days
[18] = ORX, 0.3 mg/kg per day s.c., 14 days
[19] = ORX, 1 mg/kg per day s.c., 14 days
[20] = ORX, 3 mg/kg per day s.c., 14 days
[21] = ORX, 10 mg/kg per day s.c., 14 days
[22] = ORX, 30 mg/kg per day s.c., 14 days

T2 sequence (P06536 whole entry): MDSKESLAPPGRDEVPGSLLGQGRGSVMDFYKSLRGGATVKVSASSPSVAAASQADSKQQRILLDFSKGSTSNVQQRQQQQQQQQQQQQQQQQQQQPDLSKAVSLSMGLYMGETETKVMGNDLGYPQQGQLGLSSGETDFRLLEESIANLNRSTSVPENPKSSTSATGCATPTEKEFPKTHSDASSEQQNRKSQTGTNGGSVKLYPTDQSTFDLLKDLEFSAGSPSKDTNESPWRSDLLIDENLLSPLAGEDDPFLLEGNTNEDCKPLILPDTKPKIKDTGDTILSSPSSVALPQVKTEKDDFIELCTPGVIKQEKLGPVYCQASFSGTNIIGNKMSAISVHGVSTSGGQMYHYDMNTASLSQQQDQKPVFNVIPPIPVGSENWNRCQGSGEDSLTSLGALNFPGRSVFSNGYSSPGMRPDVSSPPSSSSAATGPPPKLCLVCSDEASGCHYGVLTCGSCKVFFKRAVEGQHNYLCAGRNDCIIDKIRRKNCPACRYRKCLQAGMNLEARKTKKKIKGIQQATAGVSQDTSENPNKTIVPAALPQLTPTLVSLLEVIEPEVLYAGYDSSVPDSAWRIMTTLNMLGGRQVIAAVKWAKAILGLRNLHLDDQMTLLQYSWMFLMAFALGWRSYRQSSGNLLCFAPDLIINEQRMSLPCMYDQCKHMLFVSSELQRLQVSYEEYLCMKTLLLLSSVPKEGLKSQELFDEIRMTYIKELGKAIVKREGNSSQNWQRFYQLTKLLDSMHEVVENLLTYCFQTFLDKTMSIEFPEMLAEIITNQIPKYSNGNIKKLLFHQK
T1 sequence (P15207 whole entry S389L): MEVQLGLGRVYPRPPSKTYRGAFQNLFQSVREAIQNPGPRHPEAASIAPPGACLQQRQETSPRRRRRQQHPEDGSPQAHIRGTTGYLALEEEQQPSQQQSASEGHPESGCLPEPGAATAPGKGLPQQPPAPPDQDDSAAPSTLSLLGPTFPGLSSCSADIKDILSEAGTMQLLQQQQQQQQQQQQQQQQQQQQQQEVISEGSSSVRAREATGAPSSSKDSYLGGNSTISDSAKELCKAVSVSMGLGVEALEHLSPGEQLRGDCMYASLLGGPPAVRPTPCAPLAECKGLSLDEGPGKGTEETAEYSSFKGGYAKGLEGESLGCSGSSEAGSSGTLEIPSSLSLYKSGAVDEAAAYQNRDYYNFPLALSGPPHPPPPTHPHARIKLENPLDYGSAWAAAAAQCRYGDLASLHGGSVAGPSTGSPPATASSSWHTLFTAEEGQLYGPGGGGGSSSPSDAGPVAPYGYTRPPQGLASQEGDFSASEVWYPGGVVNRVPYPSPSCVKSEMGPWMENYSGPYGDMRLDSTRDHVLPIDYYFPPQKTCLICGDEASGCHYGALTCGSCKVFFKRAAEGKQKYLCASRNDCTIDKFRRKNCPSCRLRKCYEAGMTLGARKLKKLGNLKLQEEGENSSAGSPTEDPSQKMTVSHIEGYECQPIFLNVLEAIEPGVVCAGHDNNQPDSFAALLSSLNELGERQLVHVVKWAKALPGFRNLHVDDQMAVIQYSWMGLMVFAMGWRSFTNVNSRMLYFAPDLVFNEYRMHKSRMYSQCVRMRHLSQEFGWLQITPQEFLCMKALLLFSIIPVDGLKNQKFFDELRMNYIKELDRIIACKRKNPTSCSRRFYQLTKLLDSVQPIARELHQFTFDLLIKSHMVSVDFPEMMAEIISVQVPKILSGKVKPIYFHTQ
Chain of CYP1A2 (P05177 whole entry): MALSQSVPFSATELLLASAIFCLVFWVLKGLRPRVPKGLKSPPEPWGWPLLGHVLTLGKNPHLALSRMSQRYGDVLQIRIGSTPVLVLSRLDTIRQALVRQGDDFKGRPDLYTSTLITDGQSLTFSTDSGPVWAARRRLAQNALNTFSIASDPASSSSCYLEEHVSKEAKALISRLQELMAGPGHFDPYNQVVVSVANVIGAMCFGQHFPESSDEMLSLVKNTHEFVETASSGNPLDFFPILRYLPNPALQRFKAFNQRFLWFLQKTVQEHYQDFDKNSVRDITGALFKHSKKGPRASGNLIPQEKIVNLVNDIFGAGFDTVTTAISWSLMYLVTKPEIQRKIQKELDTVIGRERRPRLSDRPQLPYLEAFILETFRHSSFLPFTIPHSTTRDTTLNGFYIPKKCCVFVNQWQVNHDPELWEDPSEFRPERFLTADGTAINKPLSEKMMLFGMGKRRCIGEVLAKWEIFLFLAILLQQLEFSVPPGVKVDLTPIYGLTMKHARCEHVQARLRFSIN
Chain of ER-β ligand binding domain (LBD) (Q92731 264-498, species assumed): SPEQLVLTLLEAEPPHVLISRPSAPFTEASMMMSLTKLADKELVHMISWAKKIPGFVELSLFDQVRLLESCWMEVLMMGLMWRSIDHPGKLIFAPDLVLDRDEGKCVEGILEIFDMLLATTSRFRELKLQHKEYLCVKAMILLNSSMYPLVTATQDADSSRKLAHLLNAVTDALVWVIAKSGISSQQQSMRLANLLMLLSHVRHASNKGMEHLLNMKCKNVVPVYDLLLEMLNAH
Chain of Human 17β-HSD5 (P42330 whole entry): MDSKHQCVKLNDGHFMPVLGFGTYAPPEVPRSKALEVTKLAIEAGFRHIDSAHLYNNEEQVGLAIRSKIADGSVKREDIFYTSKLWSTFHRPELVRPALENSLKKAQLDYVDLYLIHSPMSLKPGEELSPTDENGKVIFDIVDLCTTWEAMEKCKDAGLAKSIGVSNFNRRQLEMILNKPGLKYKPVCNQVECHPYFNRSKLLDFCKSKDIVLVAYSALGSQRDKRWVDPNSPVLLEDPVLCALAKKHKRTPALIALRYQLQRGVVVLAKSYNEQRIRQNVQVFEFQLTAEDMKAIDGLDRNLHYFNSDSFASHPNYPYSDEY
Chain of CYP2C9 (P11712 whole entry): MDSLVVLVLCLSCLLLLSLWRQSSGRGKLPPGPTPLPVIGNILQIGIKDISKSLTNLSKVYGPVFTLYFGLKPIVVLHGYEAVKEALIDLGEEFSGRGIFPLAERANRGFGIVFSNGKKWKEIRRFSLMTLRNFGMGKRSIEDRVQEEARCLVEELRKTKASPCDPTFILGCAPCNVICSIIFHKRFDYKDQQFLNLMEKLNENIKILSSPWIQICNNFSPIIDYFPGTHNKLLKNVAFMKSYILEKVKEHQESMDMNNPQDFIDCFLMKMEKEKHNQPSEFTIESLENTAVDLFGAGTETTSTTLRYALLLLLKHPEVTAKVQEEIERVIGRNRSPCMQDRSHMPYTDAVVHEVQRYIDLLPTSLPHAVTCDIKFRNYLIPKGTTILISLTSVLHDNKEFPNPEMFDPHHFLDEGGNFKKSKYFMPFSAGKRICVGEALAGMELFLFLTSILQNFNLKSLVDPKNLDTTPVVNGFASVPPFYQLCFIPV
Chain of progesterone receptor (PR) (Q63449 whole entry): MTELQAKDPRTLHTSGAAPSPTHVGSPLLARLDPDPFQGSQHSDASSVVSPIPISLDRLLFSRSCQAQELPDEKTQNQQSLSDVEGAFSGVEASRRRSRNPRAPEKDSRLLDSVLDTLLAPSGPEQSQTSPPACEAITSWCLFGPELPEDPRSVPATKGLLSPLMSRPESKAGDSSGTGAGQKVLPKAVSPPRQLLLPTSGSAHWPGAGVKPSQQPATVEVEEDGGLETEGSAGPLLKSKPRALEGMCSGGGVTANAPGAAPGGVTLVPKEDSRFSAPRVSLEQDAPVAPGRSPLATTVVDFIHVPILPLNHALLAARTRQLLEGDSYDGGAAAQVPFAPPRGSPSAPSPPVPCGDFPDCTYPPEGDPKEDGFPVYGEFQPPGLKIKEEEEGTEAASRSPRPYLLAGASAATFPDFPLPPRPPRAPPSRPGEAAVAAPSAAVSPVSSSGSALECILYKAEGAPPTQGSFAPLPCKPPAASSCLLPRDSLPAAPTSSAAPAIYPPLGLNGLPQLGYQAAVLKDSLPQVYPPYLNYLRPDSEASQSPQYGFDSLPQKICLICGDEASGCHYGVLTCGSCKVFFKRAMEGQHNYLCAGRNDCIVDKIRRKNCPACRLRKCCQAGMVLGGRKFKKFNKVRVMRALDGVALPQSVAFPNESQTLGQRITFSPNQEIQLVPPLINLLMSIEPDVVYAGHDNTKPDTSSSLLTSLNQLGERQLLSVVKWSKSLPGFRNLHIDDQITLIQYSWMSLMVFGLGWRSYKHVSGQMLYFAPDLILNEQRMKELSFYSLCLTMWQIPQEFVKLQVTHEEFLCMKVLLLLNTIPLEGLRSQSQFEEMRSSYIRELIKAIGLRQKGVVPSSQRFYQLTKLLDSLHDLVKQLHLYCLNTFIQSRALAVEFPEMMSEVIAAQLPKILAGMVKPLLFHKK
Chain of farnesoid X receptor (FXR) (Q96RI1 whole entry): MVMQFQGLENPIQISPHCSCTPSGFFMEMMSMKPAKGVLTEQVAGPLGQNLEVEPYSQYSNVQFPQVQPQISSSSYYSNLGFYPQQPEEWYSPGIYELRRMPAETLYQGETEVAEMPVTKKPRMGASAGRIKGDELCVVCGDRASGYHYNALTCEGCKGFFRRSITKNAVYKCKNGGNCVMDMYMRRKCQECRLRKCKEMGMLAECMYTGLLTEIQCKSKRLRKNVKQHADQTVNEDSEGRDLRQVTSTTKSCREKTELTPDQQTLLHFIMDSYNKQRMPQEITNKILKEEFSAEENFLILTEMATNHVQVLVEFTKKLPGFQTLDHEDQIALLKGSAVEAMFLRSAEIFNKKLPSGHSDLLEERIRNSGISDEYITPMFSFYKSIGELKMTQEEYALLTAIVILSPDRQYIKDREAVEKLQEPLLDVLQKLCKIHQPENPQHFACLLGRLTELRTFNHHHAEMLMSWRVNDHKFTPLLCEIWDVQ

## O=C(c1ccc(O)c(F)c1)N(c1ccc(O)cc1)c1ccc(F)cc1 [Compound IV, 3-fluoro-N-(4-fluorophenyl)-4-hydroxy-N-(4-hydroxyphenyl)benzamide]
PPAR-γ
  agonist or antagonist activity: did not display any agonist or antagonist activity
Androgen receptor (AR) [1]
  agonist or antagonist activity: did not display any agonist or antagonist activity
CYP2C9
  Ki: 8 µM
[2]
  crossreaction with GR: did not
Rats [3]; single and repeated oral administration (up to 28 days)
  tolerability: well-tolerated
Rats [3]; up to 28 days oral
  pathologic changes in kidney, liver, heart and other non-target-related organs: no pathologic changes observed
[4]
  agonist or antagonist activity: did not display any agonist or antagonist activity
[5]
  absorption following oral dosing: rapidly absorbed
[5]; second peak in the terminal phase of plasma concentration-time profiles
  enterohepatic recirculation: undergoes enterohepatic recirculation
Androgen receptor (AR) [6]
  crossreaction with AR: did not
[7]
  agonist or antagonist activity: did not display any agonist or antagonist activity
[8]
  absorption following oral dosing: rapidly absorbed
[8]; preliminary
  oral bioavailability: approximates or exceeds that in dogs
Human 17β-HSD5
  effect on 17β-HSD5 enzyme activity: partial inhibitory effect
CYP1A2
  inhibition of CYP1A2: does not inhibit
Rats [9]; 30 mg/kg
  gastrointestinal motility and gastric acidity: significant increase
Rats [9]; 30 to 300 mg/kg
  peristalsis: significant increase
[10]
  agonist or antagonist activity: did not display any agonist or antagonist activity
CYP2B6
  induction of CYP2B6: does not induce
Human platelets
  effect on thrombin-induced platelet aggregation: decreased aggregation
[11]
  Ki: 0.0152 ± 0.0041 µM
[12]; [13]
  FSH: 17.3±6.4 ng/mL and 17.3^b ng/mL
  LH: 0.863±0.384 ng/mL and 0.863^b ng/mL
  Levator Ani Muscle weight: 86.9±10.0 % of Intact and 86.9^a,b % of Intact
  Prostate weight: 84.0±19.2 % of Intact and 84.0^b % of Intact
  Seminal Vesicles weight: 76.2±7.8 % of Intact and 76.2^a,b % of Intact
  Testosterone levels: 2.6 ± 1.7 ng/mL
[12]; [14]
  FSH: 15.7±7.3 ng/mL and 15.7^b ng/mL
  LH: 0.704±0.530 ng/mL and 0.704^b ng/mL
  Levator Ani Muscle weight: 82.1±12.1 % of Intact and 82.1^a,b % of Intact
  Prostate weight: 75.2±20.7 % of Intact and 75.2^b % of Intact
  Seminal Vesicles weight: 66.3±27.2 % of Intact and 66.3^a,b % of Intact
  Testosterone levels: 1.6 ± 1.0 ng/mL
[12]; [15]
  FSH: 18.4±7.7 ng/mL and 18.4^b ng/mL
  LH: 0.395±0.302 ng/mL and 0.395^a,b ng/mL
  Levator Ani Muscle weight: 65.2±4.4 % of Intact and 65.2^a % of Intact
  Prostate weight: 68.2±8.1 % of Intact and 68.2^a,b % of Intact
  Seminal Vesicles weight: 51.8±28.5 % of Intact and 51.8^a,b % of Intact
  Testosterone levels: 0.7 ± 0.4 ng/mL
[12]; [16]
  FSH: 9.2±4.0 ng/mL and 9.25^a,b ng/mL
  LH: 0.226±0.165 ng/mL and 0.226^a,b ng/mL
  Levator Ani Muscle weight: 57.8±11.2 % of Intact and 57.8^a % of Intact
  Prostate weight: 45.1±20.0 % of Intact and 45.1^a,b % of Intact
  Seminal Vesicles weight: 19.1±7.0 % of Intact and 19.1^a % of Intact
  Testosterone levels: BLOQ
[12]; [17]
  FSH: 6.3±1.8 ng/mL and 6.25^a,b ng/mL
  LH: 0.236±0.176 ng/mL and 0.236^a,b ng/mL
  Levator Ani Muscle weight: 58.1±4.7 % of Intact and 58.1^a % of Intact
  Prostate weight: 43.6±8.8 % of Intact and 43.6^a,b % of Intact
  Seminal Vesicles weight: 17.9±3.3 % of Intact and 17.9^a % of Intact
  Testosterone levels: BLOQ
[12]; [18]
  FSH: 115±17 ng/mL and 116^a ng/mL
  LH: 15.4±2.9 ng/mL and 15.4^a ng/mL
  Levator Ani Muscle weight: 54.5±6.6 % of Intact and 54.5^a % of Intact
  Prostate weight: 19.0±4.2 % of Intact and 19.0^a,b % of Intact
  Seminal Vesicles weight: 12.2±1.3 % of Intact and 12.2^a % of Intact
[12]; [19]
  FSH: 114±22 ng/mL and 114^a ng/mL
  LH: 13.5±2.2 ng/mL and 13.5^a ng/mL
  Levator Ani Muscle weight: 49.6±7.0 % of Intact and 49.6^a % of Intact
  Prostate weight: 17.4±3.4 % of Intact and 17.4^a % of Intact
  Seminal Vesicles weight: 16.6±5.4 % of Intact and 16.6^a % of Intact
[12]; [20]
  FSH: 65.2±31.9 ng/mL and 65.2^a ng/mL
  LH: 6.5 ± 5.6 ng/mL and 6.5 ng/mL
  Levator Ani Muscle weight: 53.6±10.0 % of Intact and 53.6^a % of Intact
  Prostate weight: 19.6±6.7 % of Intact and 19.6^a % of Intact
  Seminal Vesicles weight: 16.5±4.8 % of Intact and 16.5^a % of Intact
[12]; [21]
  FSH: 27.6±8.2 ng/mL and 27.6^b ng/mL
  LH: 0.425±0.135 ng/mL and 0.425^a,b ng/mL
  Levator Ani Muscle weight: 51.1±4.9 % of Intact and 51.1^a % of Intact
  Prostate weight: 22.9±5.4 % of Intact and 22.9^a,b % of Intact
  Seminal Vesicles weight: 13.3±1.9 % of Intact and 13.3^a % of Intact
[12]; [22]
  FSH: 15.1±4.1 ng/mL and 15.1^b ng/mL
  LH: 0.368±0.119 ng/mL and 0.368^a,b ng/mL
  Levator Ani Muscle weight: 49.2±4.2 % of Intact and 49.2^a,b % of Intact
  Prostate weight: 20.6±2.1 % of Intact and 20.6^a,b % of Intact
  Seminal Vesicles weight: 12.9±2.1 % of Intact and 12.9^a % of Intact
[12]; ORX, all treated groups (0.3-30 mg/kg per day)
  Testosterone levels: BLOQ
[12]; intact and ORX animals, vs respective controls
  doses that significantly suppressed LH levels: ≥ 10 mg/kg per day
[12]; intact animals
  daily doses with statistically significant LH reductions: ≥ 3 mg/kg
  doses with significant FSH reductions: ≥ 10 mg/kg/day
  doses with significant testosterone reductions: ≥ 3 mg/kg per day
[12]; intact male rats, 3, 10 and 300 mg/kg, after 24 h, 72 h and 168 h (FIG. 9)
  suppression of serum testosterone: Rapid and potent suppression
Telemetered dogs
  hemodynamic or cardiac function (blood pressure, heart rate, electrocardiogram morphology or QT intervals): did not affect
